Experimental data from a melting point compilation (Tetko et al.; mined from patent text by program, amines drawn as free bases though some values may be those of a salt).

| SMILES | melting point [°C] |
| --- | --- |
| CC(=O)CN1CCc2c(c(=O)oc3cc4c(cc23)OCO4)C1 | 167 to 170 |
| Fc1cc2c(c(-c3c(Cl)cccc3Cl)c1)OC(CNCC1CC1)C2 (stereo not given) | 130 to 133 |
| CC(Cc1ccc(OCC(N)=O)cc1)NCC(O)c1ccccc1 (stereo not given) | 158 to 162 |
| CCOC(=O)/C=C/c1ccc(OCCOC)cc1Oc1ncc(C(F)(F)F)cc1Cl | 78.2 to 78.5 |
| COC(=O)ONC(=N)Nc1ccc(C(=O)O)cc1 | 174 to 175 |
| CC(C)(C)c1cc(C(=O)c2ccn(Cc3ccccc3)c2)cc(C(C)(C)C)c1O | 123 to 124 |
| CC(=O)N1CCCCc2ccc(/C=C/CN(C)C)cc21 | 87 to 88 |
| CCc1n[nH]c2c(=O)[nH]c(-c3cc(S(C)(=O)=O)ccc3OCc3ccccn3)nc12 | 283 to 286 |
| COC(=O)C1=CC(=O)CC(c2ccc(Cl)c(OC)c2F)N1 (stereo not given) | 165 to 166 |
| Cc1cccc(C)c1-n1cnc(N)nc1=O | 248 to 250 |
| C=C(CC1(CC(=C)C(=O)OC(C)(C)C)C(=O)N(C)C(=O)N(C)C1=O)C(=O)OC(C)(C)C | 90 to 91 |
| COC(C(=O)O)c1nn(-c2ccc(Cl)cc2)c2c1CCCC2 (stereo not given) | 185 to 186 |
| COc1c(C)cc2ccccc2c1C(CC(=O)O)C(=O)O (stereo not given) | 159 |
| O=c1[nH]c(=O)n(C2CC(OCc3cccc(Cl)c3)C(CO)O2)cc1F (stereo not given) | 153 to 155 |
| Cc1cnc(CSc2nc3cc(OC(F)(F)C(F)F)ccc3[nH]2)c(Cl)c1N1CCCCC1 | 170 to 171 |
| Fc1ccc(C2OC(=S)OC2(Cn2cncn2)c2ccc(Cl)cc2Cl)cc1 (stereo not given) | 169 to 170 |
| CCCCc1nc(Cl)c(CO)n1Cc1ccc(-c2ccccc2-c2nnnn2C(c2ccccc2)(c2ccccc2)c2ccccc2)cc1 | 95 to 98 |
| Cc1c(C)c(C2CC(=O)C=C(O)C2)c(Cl)c2c1CCO2 (stereo not given) | 224 |
| CC(OC1CCCCO1)C(O)(Cn1cncn1)c1ccc(F)cc1F (stereo not given) | 93 to 95 |

Now from value to molecule:

| melting point [°C] | SMILES |
| --- | --- |
| 192 to 194 | CC(C)(C)c1ccc(/C=N/OCCCOc2ccc(C(=O)O)c(NC(=O)c3ccc(C(C)(C)C)cc3)c2)cc1 |
| 214 to 216 | NC(=O)c1cc2c(Oc3ccc(C(=O)NCCN4CCOCC4)cc3)cncc2s1 |
| 191 | CC(C)(C)OC(=O)CN(C(=O)CNC(=O)Nc1cnc2ccccc2c1)c1ccccc1 |
| 235 to 237 | CN1c2ccccc2NC(=O)c2cccnc21 |
| 132 to 133 | O=C1NC(=O)C(Nc2cccc(-c3ccc(OCc4ccc5ccccc5n4)cc3)c2)S1 (stereo not given) |
| 220 | O=C(Nc1ccc2[nH]ncc2c1)O[C@@H](c1cc(F)cc(Cl)c1)[C@H]1CCCCN1 |
| 81 to 86 | CC(C)CC(NC(=O)C(Cc1c[nH]cn1)NC(=O)C(CC(=O)NCCc1ccccc1)Cc1cccc2ccccc12)C(O)C(=O)OCc1ccccc1 (mixture of isomers) |
| 225 to 226 | COc1ccc(CNC(=O)Nc2ccc(CN3C(=O)[C@H]4CCC[C@H]4N(C(=O)CCl)c4ccccc43)cc2)cc1 (relative stereo) |
| 204 to 205 | COc1cc(COc2nn(-c3ccccc3)cc2/C=C/C(=O)O)ccc1OCc1nc(-c2ccco2)oc1C |
| 65 to 70 | CC1(C)[C@H](C=C(Cl)C(F)(F)F)[C@@H]1C(=O)NCc1cccc2c1CCCc1ccccc1-2 (relative stereo) |
| 156 to 158 | CC(C)(C)c1cc(CCc2ccccc2NC(=O)NC2CCN(Cc3cccnc3)CC2)cc(C(C)(C)C)c1O |
| 181 to 182 | CN(C(=O)Cc1[nH]c(=O)c2ccc(Cl)cc2c1-c1ccccc1)c1cc(C(F)(F)F)cc(C(F)(F)F)c1 |
| 207 to 209 | O=C(O)c1cc(-c2ccccc2)cc2c(-c3ccccc3)c([N+](=O)[O-])oc12 |
| 300 | N#Cc1c(N2CCN(C(=O)c3cccs3)CC2)c2sccc2n(CC(=O)c2ccccc2)c1=O |
| 231 to 235 | O=C(c1ccc(F)cc1)C1CCN(CCn2c(=O)[nH]c3sccc3c2=O)CC1 |
| 194 to 196 | COc1cn(-c2ccc(I)cc2F)nc(-c2ccnn2-c2ccccc2)c1=O |
